Data on 17 compounds can be found in patent US8114866B2, “Derivatives of 1-piperazine- and 1-homopiperazine-carboxylates, preparation method thereof and use of same as inhibitors of the FAAH enzyme” (Sanofi-Aventis, priority 2003, dated 2012).

Each structure is given as a SMILES string.

Series [1] has as its target T1, enzyme FAAH (Fatty Acid Amido Hydrolase) (Mus musculus, UniProt O08914).
T1 construct: The membrane homogenates are prepared extemporaneously by homogenizing the tissues with a Polytron machine; from tissue; host or cells: mouse brain (minus cerebellum) membrane homogenate
T1 sequence (O08914 1-579): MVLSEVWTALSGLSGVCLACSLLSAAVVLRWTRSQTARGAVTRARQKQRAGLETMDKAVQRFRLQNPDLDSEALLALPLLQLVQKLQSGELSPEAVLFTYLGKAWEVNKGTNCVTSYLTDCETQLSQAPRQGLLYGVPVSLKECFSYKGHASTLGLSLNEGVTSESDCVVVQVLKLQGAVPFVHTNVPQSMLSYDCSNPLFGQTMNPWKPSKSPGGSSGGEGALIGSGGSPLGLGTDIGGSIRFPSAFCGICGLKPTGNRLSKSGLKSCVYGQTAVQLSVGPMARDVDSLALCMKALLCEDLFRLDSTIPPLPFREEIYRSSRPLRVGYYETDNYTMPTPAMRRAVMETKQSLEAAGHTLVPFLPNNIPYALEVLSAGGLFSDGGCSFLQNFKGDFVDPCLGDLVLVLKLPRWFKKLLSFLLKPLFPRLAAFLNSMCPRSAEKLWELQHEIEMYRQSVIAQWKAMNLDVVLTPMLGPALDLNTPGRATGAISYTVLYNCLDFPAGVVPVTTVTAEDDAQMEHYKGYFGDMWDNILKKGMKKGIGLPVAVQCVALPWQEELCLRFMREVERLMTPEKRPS
The experiment in a line: radioenzymatic test of FAAH inhibition (hydrolysis of anandamide [ethanolamine 1-3H], mouse brain membrane homogenates). It counts as biochemical. The note with it: anandamide 10 μM, 15 minutes at 25° C., read-out: IC50 (concentration inhibiting 50% of the control enzymatic activity of FAAH). The procedure:
The compounds of the invention were subjected to pharmacological tests to determine their inhibitory effect on the enzyme FAAH (Fatty Acid Amido Hydrolase).
Thus, mouse brains (minus the cerebellum) are removed and stored at −80° C. The membrane homogenates are prepared extemporaneously by homogenizing the tissues with a Polytron machine in 10 mM Tris-HCl buffer (pH 8) containing 150 mM NaCl and 1 mM EDTA. The enzymatic reaction is then performed in 70 μl of buffer containing fatty-acid-free bovine serum albumin (1 mg/ml). The various test compounds at different concentrations, anandamide [ethanolamine 1-^3H] (specific activity of 15-20 Ci/mmol) diluted to 10 μM with cold anandamide, and the membrane preparation (400 μg of thawed tissue per test) are successively added. After 15 minutes at 25° C., the enzymatic reaction is quenched by adding 140 μL of chloroform/methanol (2:1). The mixture is stirred for 10 minutes and then centrifuged for 15 minutes at 3500×g. An aliquot (30 μL) of the aqueous phase containing the ethanolamine [1-^3H] is counted by liquid scintillation.

Another series relates to male OF1 mice. The experiment in a line: test of analgesia: abdominal stretching induced by PBQ (phenylbenzoquinone) i.p. The note with it: 1 mg/kg p.o. at 2 hours, PBQ 2 mg/kg i.p. It counts as in vivo. The procedure: It is thus seen that the compounds according to the invention have inhibitory activity on the enzyme FAAH. The in vivo activity of the compounds of the invention was evaluated in a test of analgesia.
Thus, the intraperitoneal (i.p.) administration of PBQ (phenylbenzoquinone, 2 mg/kg in a 0.9% sodium chloride solution containing 5% ethanol) to male OF1 mice weighing 25 to 30 g causes abdominal stretching, on average 30 twists or contractions in the period from 5 to 15 minutes after injection. The test compounds are administered orally as a 0.5% suspension in Tween 80, 60 minutes or 120 minutes before the administration of PBQ. Under these conditions, the most powerful compounds of the invention reduce the number of stretches induced by PBQ by 35 to 70%, in a dosage range of between 1 and 30 mg/kg.

For the compound `CNC(=O)COC(=O)N1CCN(c2ccc(-c3ccc(Cl)cc3)cc2)CC1` [Compound 34], in series [1], the IC50 worked out at 20 nM.

As to `CCOc1ccc(-c2ccc(N3CCN(C(=O)OCC(=O)NC)CC3)cc2)cc1` [Compound 43], the IC50 in series [1] was 44 nM.

`CNC(=O)COC(=O)N1CCN(c2ccc(-c3cccc(C(F)(F)F)c3)nn2)CC1` [Compound 87, 2-(methylamino)-2-oxoethyl 4-{6-[3-(trifluoromethyl)phenyl]-3-pyridazinyl}-1-piperazinecarboxylate] returned a melting point of 151 to 153 °C.

`Cc1ccc(-c2ccc(Cl)cc2)cn1` [Compound 98] came in with a melting point of 204 to 206 °C.

Turning to `CNC(=O)COC(=O)N1CCN(c2ccc(CC(C)C)nc2)CC1` [Compound 66, 2-(methylamino)-2-oxoethyl 4-[6-(2-methylpropyl)-3-pyridyl]-1-piperazinecarboxylate], the melting point lay in the range of 87 to 89 °C.

In the case of `Cc1cc(F)cc2c1OCCC2` [Compound 15], the melting point was 189 to 190 °C.

As for `CNC(=O)COC(=O)N1CCN(c2ccc(-c3ccc(OC(F)(F)F)cc3)cn2)CC1` [Compound 83, 2-(methylamino)-2-oxoethyl 4-(5-{4-[(trifluoromethyl)oxy]phenyl}-2-pyridyl)-1-piperazinecarboxylate], the melting point was 188 to 190 °C. Further, in series [1], the IC50 came out at 12 nM.

In the case of `CNC(=O)COC(=O)N1CCN(c2ccc(CC(C)C)cn2)CC1` [Compound 63, 2-(methylamino)-2-oxoethyl 4-[5-(2-methylpropyl)-2-pyridyl]-1-piperazinecarboxylate], the melting point was in the range of 127 to 129 °C.

For `CNC(=O)COC(=O)N1CCN(c2ccc(-c3cccc(C(F)(F)F)c3)cc2)CC1` [Compound 37, 2-(methylamino)-2-oxoethyl 4-[3′-(trifluoromethyl)-4-biphenylyl]-1-piperazinecarboxylate], the melting point is 129 to 130 °C. Also, the “Reduction of the number of stretches (%)” value with male OF1 mice is recorded as −57 (a) %. The IC50 in series [1] came to 190 nM.

In turn, `CNC(=O)COC(=O)N1CCN(c2ccc(-c3cccc(C(F)(F)F)c3)nc2)CC1` [Compound 85, 2-(methylamino)-2-oxoethyl 4-{6-[3-(trifluoromethyl)phenyl]-3-pyridyl}-1-piperazinecarboxylate] gave a melting point of 146 to 150 °C.

The compound `CNC(=O)COC(=O)N1CCN(c2ccc(-c3cccc(C(F)(F)F)c3)cn2)CC1` [Compound 76, 2-(methylamino)-2-oxoethyl 4-{5-[3-(trifluoromethyl)phenyl]-2-pyridyl}-1-piperazinecarboxylate] showed a melting point of 158 to 160 °C. In addition, in the series on male OF1 mice, the “Reduction of the number of stretches (%)” value was −47 (a) %. Further, the IC50 in series [1] is 290 nM.

Compound `CNC(=O)COC(=O)N1CCN(c2ccc(-c3ccc(C(F)(F)F)cc3)cn2)CC1` [Compound 79, 2-(methylamino)-2-oxoethyl 4-{5-[4-(trifluoromethyl)phenyl]-2-pyridyl}-1-piperazinecarboxylate] returned a melting point of 206 to 209 °C.

`CNC(=O)COC(=O)N1CCCN(c2ccc(-c3ccc(OC(F)(F)F)cc3)cn2)CC1` [Compound 103, 2-(methylamino)-2-oxoethyl 4-(5-{4-[(trifluoromethyl)oxy]phenyl}-2-pyridyl)-1,4-diazepane-1-carboxylate] gave a melting point of 191 to 193 °C.

Consider `CNC(=O)COC(=O)N1CCN(c2ccc(-c3ccc(OC(F)(F)F)cc3)cc2)CC1` [Compound 44, 2-(methylamino)-2-oxoethyl 4-{4′-[(trifluoromethyl)oxy]-4-biphenyl}-1-piperazinecarboxylate], for which the melting point lay in the range of 187 to 189 °C. In the series on male OF1 mice, the “Reduction of the number of stretches (%)” value is −53 (a) %. Besides, the IC50 in series [1] amounted to 7 nM.

In turn, `Cc1ccc(-c2ccc([N+](=O)[O-])cc2)cc1` [Compound 36] returned a melting point of 197 to 198 °C.

For `NC(=O)COC(=O)N1CCN(c2ccc(-c3cccc(C(F)(F)F)c3)nc2)CC1` [Compound 86, 2-amino-2-oxoethyl 4-{6-[3-(trifluoromethyl)phenyl]-3-pyridyl}-1-piperazinecarboxylate], the melting point is 155 to 157 °C.

`Cc1ccc(-c2ccc(Cl)cc2)cn1` [Compound 75]: the melting point was in the range of 203 to 206 °C.
